Reference: patent publication US5602176A, “Phenyl carbamate” (priority 1987, dated 1997)
Where two headings read alike, the source gives them in different places.

How the values were obtained:
[1] = test system: deoxyglucose (DOG) utilisation in the brain; test: Muscarinic and nicotinic effects on brain glucose utilisation (deoxyglucose autoradiography); type: in vivo, rat; settings: 7.5 μmol/kg p.o.
Source text: Muscarinic and nicotinic effects on brain glucose utilisation
Changes in the functional activity of the CNS are associated with altered deoxyglucose (DOG) utilisation in the brain which can be visualised simultaneously in several brain regions using the autoradiographic method of Sokoloff et al., J. Neurochem. 28, 897 (1977). The administration of cholinergic drugs either direct (muscarinic agonists) or indirect (accumulation of acetylcholine) induces in this model a characteristic "fingerprint" pattern by modifying the regional glucose metabolism.
Male Wistar rats (150-200 g) are used. Drugs are administered at various doses and by different routes (i.v., p.o., i.p.) to animals. [14C]-2-deoxyglucose (125 μC/kg) is injected 45 min. before the animals are sacrificed. The brains are immediately excised, frozen at -80° C. and subsequently cut in slices with a thickness of 20 μm. The optical densities of the radiographic images are measured according to a modification of Sokoloff et al.

[2] = In vitro skin diffusion test (penetration through the skin); type: in vitro ADME; settings: rat skin; listed as compound A
Source text: The penetration through the skin of the compounds for administration according to the invention may be observed in standard in vitro or in vivo tests.
One in vitro test is the well known diffusion test which may be effected according to the principles set out in GB 2098865 A and by T. J. Franz in J. Invest. Dermatol. (1975) 64, 194-195. Solutions containing the active agent in unlabelled or radioactively labelled form are applied to one side of isolated pieces of intact human skin or hairless rat skin about 2 cm^2 in area. The other side of the skin is in contact with physiological saline. The amount of active agent in the saline is measured in conventional manner, e.g. by HPLC or spectrophotometric techniques, or by determining the radioactivity.
In this test using rat skin the following penetration rates, for example, have been found: […]

[3] = test system: dopamine metabolism in striatum; test: Influence on dopamine metabolism; type: in vivo, rat
Protocol: Influence on dopamine metabolism
Male OFA rats (150-200 g) were used both for acute and subchronic experiments. The animals are maintained under 12 hour periods of light and dark. The animals are sacrificed always between 11.00 and 13.00 h. The brains are excised immediately, dissected on ice according to the method of GLOWINSKI and IVERSEN, J. Neurochem. 13, 655 (1966), frozen on dry ice and the tissue samples stored at -80° C. until analysis.
Dopamine and its metabolites DOPAC (3,4-dihydroxyphenylacetic acid) and HVA (homovanillic acid) are determined in brain tissue extracts which are obtained by homogenisation of the stored brain tissue samples in 0.1N HCl containing 0.05 mM ascorbic acid and subsequent centrifugation. Striatal and cortical tissues are used.
The determination of the metabolites is performed using either the gas chromatography/mass fragmentography (GCMS) technique as described by KAROUM et al., J. Neurochem. 25, 653 (1975) and CATABENI et al., Science 178, 166 (1972) or the fluorometric method as described by […] and MAITRE, Analyt. Biochem. 51, 474 (1973). For the GCMS method, tissue extracts are prepared by adding known amounts of deuterated monoamines and their respective metabolites as internal standards.

AChE = AChE (Rattus norvegicus, UniProt P37136); type: in vivo; design: from tissue; host or cells: male OFA rats: cortex, hippocampus, striatum, pons/medulla, heart, blood; settings: Transdermal 30 μmol/kg
Protocol: The AChE activity is measured according to the method described by Ellman (Arch. Biochem. Biophys. 82, 70, 1959). Rat brain tissue is homogenized in cold phosphate buffer pH 7.3 (0.25 mM) containing 0.1% of Triton X-100. After centrifugation aliquots of the clear supernatant is used as enzyme source. The enzyme is preincubated with different concentrations of the inhibitor. After different times, substrate (acetylthiocholinjodide 0.5 mM) is added and the remaining activity determined.
The compounds are dissolved in or diluted with n-heptane to a concentration of 1 or 3 mg/20 μl. […] The application place is immediately covered using a thin plastic film and a plaster. The animal has no access to the plaster. Various times after the administration the animals are killed by decapitation and the remaining AChE activity is measured.

Chain of AChE (P37136 32-614): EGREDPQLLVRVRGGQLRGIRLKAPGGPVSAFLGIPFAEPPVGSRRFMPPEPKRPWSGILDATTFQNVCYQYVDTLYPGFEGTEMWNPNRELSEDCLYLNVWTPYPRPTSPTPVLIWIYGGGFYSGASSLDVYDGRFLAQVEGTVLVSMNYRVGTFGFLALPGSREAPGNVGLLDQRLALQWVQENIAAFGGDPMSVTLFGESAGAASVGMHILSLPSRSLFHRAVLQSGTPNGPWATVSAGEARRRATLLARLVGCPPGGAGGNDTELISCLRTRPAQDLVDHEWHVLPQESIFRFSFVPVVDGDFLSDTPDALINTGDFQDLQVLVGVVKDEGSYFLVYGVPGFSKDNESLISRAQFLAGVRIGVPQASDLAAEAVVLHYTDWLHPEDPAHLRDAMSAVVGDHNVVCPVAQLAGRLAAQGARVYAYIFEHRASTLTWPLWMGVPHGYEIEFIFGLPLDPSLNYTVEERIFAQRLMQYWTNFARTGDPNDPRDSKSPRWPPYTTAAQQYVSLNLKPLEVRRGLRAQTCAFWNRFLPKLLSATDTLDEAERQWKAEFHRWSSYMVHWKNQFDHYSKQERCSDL

In the case of `CCN(C)C(=O)Oc1cccc([C@H](C)N(C)C)c1` [Compound A, (S)-N-ethyl-3-[(1-dimethylamino)ethyl]-N-methyl-phenyl-carbamate], the “changes in DOG utilisation in various rat brain regions” value [1] is reported as “significant changes in DOG utilisation”, the penetration rate [2] is reported as 23.6±14.9% and the “dopamine metabolism in striatum” value ([3]; following administration) is reported as “increased”. For the same molecule, the “enhancing the striatal dopamine metabolite concentration, comparison” value ([3]; rat, in vivo) was “more active than compound B and racemate C”, the “AChE activity in % of controls ± SD, Blood” value (AChE; 0.5 hours after treatment) was 71.3 ± 12.3 % of controls and the “AChE activity in % of controls ± SD, Cortex” value (AChE; 6 hours after treatment) was 42.4 ± 11.7 % of controls. The “AChE activity in % of controls ± SD, Striatum” value (AChE; 6 hours after treatment) was 65.9 ± 15.5 % of controls and the “AChE activity in % of controls ± SD, Blood” value (AChE; 24 hours after treatment) was 78.1 ± 17.8 % of controls.
